The source of these data is paper PMC8286840, “Identifying SARS-CoV-2 antiviral compounds by screening for small molecule inhibitors of Nsp3 papain-like protease” (Biochemical Journal, 2021).

The structures appear in SMILES notation. Counter-ions that a name gives are not always drawn. Like-named read-outs stand apart in the source and are kept apart here. Where a SMILES comes first, the peptide text is derived from it. Bridges are numbered along the chain shown (N, C = ends). [ ]: non-standard residue; d: D form. The star is where a group is joined. NMePhe(4-NMe2) = CN[C@@H](Cc1ccc(N(C)C)cc1)C(=O)O; Pip(4-oxo) = O=C1CCN[C@H](C(=O)O)C1; Picolinoyl(3-OH) = O=C(c1ncccc1O)*; Phg = N[C@H](C(=O)O)c1ccccc1; dAbu = CC[C@@H](N)C(=O)O

Test [1] concerns the target T1, SARS-CoV-2 PLpro (nsp3 1564–1878) (Severe acute respiratory syndrome coronavirus 2, UniProt P0DTD1). The test is described as follows: biochemical. Also noted: FRET-quenched peptide (Pro3) cleavage by PLpro, 10 min pre-incubation, slope over 20 min, normalised to no-compound control. The conditions noted are these: low concentration screen, read-out: % of control remaining.

The target of test [2] is T1, SARS-CoV-2 PLpro (nsp3 1564–1878). The test is described as follows: biochemical. Conditions: high concentration screen, read-out: % of control remaining. Also noted: FRET-quenched peptide (Pro3) cleavage by PLpro, 10 min pre-incubation, slope over 20 min, normalised to no-compound control.

On to `CCC1(c2ccccc2)C(=O)NCNC1=O` [Primidone], for which the remaining activity at 1.25 µM in test [1] (Well no.=1443) was 101%. Moreover, the remaining activity at 3.75 µM in test [2] (Well no.=1443) is 95.8%.
Turning to `CC[C@H]1NC(=O)[C@@H](NC(=O)c2ncccc2O)[C@@H](C)OC(=O)[C@H](c2ccccc2)NC(=O)[C@@H]2CC(=O)CCN2C(=O)[C@H](Cc2ccc(N(C)C)cc2)N(C)C(=O)[C@@H]2CCCN2C1=O` [Pristinamycin IA] ({Picolinoyl(3-OH)}-T[dAbu]P[NMePhe(4-NMe2)][Pip(4-oxo)][Phg]; ester 1-C), the remaining activity at 1.25 µM in test [1] (Well no.=7980) was found to be 96.9%. In test [2] (Well no.=7980), the remaining activity at 3.75 µM amounted to 96.6%.
Consider `CCCN(CCC)S(=O)(=O)c1ccc(C(=O)O)cc1` [Probenecid (Benemid)], for which the remaining activity at 1.25 µM in test [1] (Well no.=4972) came out at 95.9%. Moreover, the remaining activity at 3.75 µM in test [2] (Well no.=4972) amounted to 91.7%.
Regarding `CC(C)(Sc1cc(C(C)(C)C)c(O)c(C(C)(C)C)c1)Sc1cc(C(C)(C)C)c(O)c(C(C)(C)C)c1` [Probucol], the remaining activity at 1.25 µM in test [1] (Well no.=4083) worked out at 98.5%. In test [2] (Well no.=4083), the remaining activity at 3.75 µM is 105%.
For `CCN(CC)CCNC(=O)c1ccc(N)cc1` [Procainamide hydrochloride], the remaining activity at 1.25 µM in test [1] (Well no.=1307) was 96.8%. In test [2] (Well no.=1307), the remaining activity at 3.75 µM was 98.9%.
For the compound `CCN(CC)CCNC(=O)c1ccc(N)cc1` [Procainamide.HCl], the remaining activity at 1.25 µM in test [1] (Well no.=1645) came to 108%. Moreover, the remaining activity at 3.75 µM in test [2] (Well no.=1645) worked out at 107%.
`CCN(CC)CCOC(=O)c1ccc(N)cc1` [Procaine hydrochloride]: the remaining activity at 1.25 µM in test [1] (Well no.=1165) worked out at 103%. For the same compound, the remaining activity at 3.75 µM in test [2] (Well no.=1165) worked out at 105%.
Turning to `CNNCc1ccc(C(=O)NC(C)C)cc1` [Procarbazine], the remaining activity at 1.25 µM in test [1] (Well no.=2145) worked out at 104%. In test [2] (Well no.=2145), the remaining activity at 3.75 µM was found to be 105%.
With `CCC(NC(C)C)C(O)c1ccc(O)c2[nH]c(=O)ccc12` (stereo not drawn) [Procaterol.HCl], the remaining activity at 1.25 µM in test [1] (Well no.=1745) was determined as 99.6%. Moreover, the remaining activity at 3.75 µM in test [2] (Well no.=1745) worked out at 101%.
For the compound `CN1CCN(CCCN2c3ccccc3Sc3ccc(Cl)cc32)CC1` [Prochlorperazine dimaleate], the remaining activity at 1.25 µM in test [1] (Well no.=1497) is 99.3%. Moreover, in test [2] (Well no.=1497), the remaining activity at 3.75 µM is 101%.
Turning to `O=C1N[C@H](C(=O)O)CS1` [Procysteine], the remaining activity at 1.25 µM in test [1] (Well no.=3897) was 104%. In addition, the remaining activity at 3.75 µM in test [2] (Well no.=3897) came out at 103%.
Turning to `CC(=O)[C@H]1CC[C@H]2[C@@H]3CCC4=CC(=O)CC[C@]4(C)[C@H]3CC[C@]12C` [Progesterone], the remaining activity at 1.25 µM was determined as 106% in test [1] (Well no.=852), 95.2% in test [1] (Well no.=2143) and 105% in test [1] (Well no.=7071). Besides, the remaining activity at 3.75 µM in test [2] (Well no.=852) was found to be 107%; in test [2] (Well no.=2143), 101%; in test [2] (Well no.=7071), 104%.
In the case of `CCCN(CCC)C(=O)C(CCC(=O)O)NC(=O)c1ccccc1` (stereo not drawn) [Proglumide], the remaining activity at 1.25 µM in test [1] (Well no.=941) was found to be 104%. Further, in test [2] (Well no.=941), the remaining activity at 3.75 µM turned out to be 100%.
For the compound `CN(C)CCCN1c2ccccc2Sc2ccccc21` [Promazine hydrochloride], the remaining activity at 1.25 µM in test [1] (Well no.=1155) came out at 104%. Also, the remaining activity at 3.75 µM in test [2] (Well no.=1155) was 102%.
Turning to `CC(CN1c2ccccc2Sc2ccccc21)N(C)C` (stereo not drawn) [Promethazine hydrochloride], the remaining activity at 1.25 µM in test [1] (Well no.=860) amounted to 100%. Also, the remaining activity at 3.75 µM in test [2] (Well no.=860) was 101%.
On to `CC(CN1c2ccccc2Sc2ccccc21)N(C)C` (stereo not drawn) [Promethazine.HCl], for which the remaining activity at 1.25 µM in test [1] (Well no.=1640) amounted to 96.2%. The remaining activity at 3.75 µM in test [2] (Well no.=1640) was 97.2%.
`CCCNCC(O)COc1ccccc1C(=O)CCc1ccccc1` (stereo not drawn) [Propafenone hydrochloride]: the remaining activity at 1.25 µM in test [1] (Well no.=956) was found to be 101%. In test [2] (Well no.=956), the remaining activity at 3.75 µM was 101%.
On to `CCCNCC(O)COc1ccccc1C(=O)CCc1ccccc1` (stereo not drawn) [Propafenone], for which, in test [1] (Well no.=1641), the remaining activity at 1.25 µM is 109%. Besides, the remaining activity at 3.75 µM in test [2] (Well no.=1641) is 110%.
Take `CC(C)[N+](C)(CCOC(=O)C1c2ccccc2Oc2ccccc21)C(C)C` [Propantheline bromide]: in test [1] (Well no.=1401), the remaining activity at 1.25 µM came out at 102%. Moreover, in test [2] (Well no.=1401), the remaining activity at 3.75 µM was found to be 102%.
As to `CCCn1cnc2c1c(=O)n(CCCCC(C)=O)c(=O)n2C` [Propentofylline], the remaining activity at 1.25 µM in test [1] (Well no.=1403) was 95.1%. In addition, in test [2] (Well no.=1403), the remaining activity at 3.75 µM was 94%.
`CCC(=O)c1ccc2c(c1)N(CCCN(C)C)c1ccccc1S2` [Propionylpromazine hydrochloride]: the remaining activity at 1.25 µM in test [1] (Well no.=1301) was found to be 103%. In addition, the remaining activity at 3.75 µM in test [2] (Well no.=1301) was 106%.
Take `CC(C)c1cccc(C(C)C)c1O` [Propofol]: the figures for the remaining activity at 1.25 µM in test [1] (Well no.=544) and in test [1] (Well no.=1893) were 104% and 92.7%, respectively. Also, the remaining activity at 3.75 µM came to 103% in test [2] (Well no.=544) and 89.6% in test [2] (Well no.=1893).
`CCCOC(=O)c1ccc(O)cc1` [Propylparaben]: the remaining activity at 1.25 µM in test [1] (Well no.=7453) was 105%. The remaining activity at 3.75 µM in test [2] (Well no.=7453) came to 101%.
On to `CCCc1cc(=O)[nH]c(=S)[nH]1` [Propylthiouracil], for which the remaining activity at 1.25 µM in test [1] (Well no.=4670) came out at 98.7%. Also, the remaining activity at 3.75 µM in test [2] (Well no.=4670) was 94.9%.
As for `CCCCC[C@H](O)/C=C/[C@H]1C=CC(=O)[C@@H]1CCCCCCC(=O)O` [Prostaglandin A1], the remaining activity at 1.25 µM stood at 99.1% in test [1] (Well no.=3086) and 89.4% in test [1] (Well no.=4235). For the same compound, the remaining activity at 3.75 µM in test [2] (Well no.=3086) was found to be 101%; in test [2] (Well no.=4235), 94.9%.
With `CCCCC[C@H](O)/C=C/[C@H]1C=CC(=O)[C@@H]1C/C=C\CCCC(=O)O` [Prostaglandin A2], in test [1] (Well no.=4467), the remaining activity at 1.25 µM was 100%. Also, in test [2] (Well no.=4467), the remaining activity at 3.75 µM was found to be 96.3%.
`CCCCC[C@H](O)/C=C/C1=C(CCCCCCC(=O)O)C(=O)CC1` [Prostaglandin B1]: the values for the remaining activity at 1.25 µM in test [1] (Well no.=3088) and in test [1] (Well no.=4469) were 99.1% and 102%, respectively. Further, the remaining activity at 3.75 µM turned out to be 100% in test [2] (Well no.=3088) and 102% in test [2] (Well no.=4469).
`CCCCC[C@H](O)/C=C/C1=C(C/C=C\CCCC(=O)O)C(=O)CC1` [Prostaglandin B2]: the remaining activity at 1.25 µM in test [1] (Well no.=4471) stood at 96.7%. Also, the remaining activity at 3.75 µM in test [2] (Well no.=4471) was 101%.
